This data set can be described thus: solubility of the PPB-enone isomers in crystallization solvents. In kind it is physicochemical. How it is done:
The solubility (g/100 ml) of the PPB-enone isomers in some of the solvents with which crystallization was attempted is shown below: […]

Each structure is given as a SMILES string.

`Cc1cccc([C@H](C)C(=O)/C=C/[C@@H]2[C@H]3CC(=O)O[C@H]3C[C@H]2OC(=O)c2ccc(-c3ccccc3)cc2)c1` [16-(S)-PPB-enone, [(3aR,4R,5R,6aS)-4-[(E,4S)-4-(m-tolyl)-3-oxo-pent-1-enyl]-2-oxo-3,3a,4,5,6,6a-hexahydrocyclopenta[b]furan-5-yl] 4-phenylbenzoate]: the solubility entry reads like this: (DIPE, 23° C.) “insoluble”; (DIPE, Reflux) 0.2 g/100 ml; (EtOH, 23° C.) “insoluble”; (EtOH, Reflux) 0.33 g/100 ml; (MeOH, 23° C.) “insoluble”; (MeOH, Reflux) 0.33 g/100 ml. Further, the solubility entry is reported as “insoluble” (TBME, 23° C.); 0.13 g/100 ml (TBME, Reflux); “insoluble” (iPrOH, 23° C.); 0.29 g/100 ml (iPrOH, Reflux).
Regarding `Cc1cccc(C(C)C(=O)/C=C/[C@@H]2[C@H]3CC(=O)O[C@H]3C[C@H]2OC(=O)c2ccc(-c3ccccc3)cc2)c1` (stereo partly drawn) [16-(R,S)-PPB-enone, [(3aR,4R,5R,6aS)-4-[(E)-4-(m-tolyl)-3-oxo-pent-1-enyl]-2-oxo-3,3a,4,5,6,6a-hexahydrocyclopenta[b]furan-5-yl] 4-phenylbenzoate], the solubility result is on record as “insoluble” (DIPE, 23° C.); “in-” (DIPE, Reflux); “insoluble” (EtOH, 23° C.); 0.77 g/100 ml (EtOH, Reflux); “insoluble” (MeOH, 23° C.); 0.91 g/100 ml (MeOH, Reflux). The solubility is 0.14 g/100 ml (TBME, 23° C.); 0.33 g/100 ml (TBME, Reflux); “insoluble” (iPrOH, 23° C.); 0.80 g/100 ml (iPrOH, Reflux).
As for `Cc1cccc([C@@H](C)C(=O)/C=C/[C@@H]2[C@H]3CC(=O)O[C@H]3C[C@H]2OC(=O)c2ccc(-c3ccccc3)cc2)c1` [16-(R)-PPB-enone, [(3aR,4R,5R,6aS)-4-[(E,4R)-4-(m-tolyl)-3-oxo-pent-1-enyl]-2-oxo-3,3a,4,5,6,6a-hexahydrocyclopenta[b]furan-5-yl] 4-phenylbenzoate], the solubility result is reported as “in-” (DIPE, 23° C.); “in-” (DIPE, Reflux); 0.43 g/100 ml (EtOH, 23° C.); 4.00 g/100 ml (EtOH, Reflux); 0.45 g/100 ml (MeOH, 23° C.); 5.00 g/100 ml (MeOH, Reflux). For the same compound, the solubility reads like this: (TBME, 23° C.) 0.71 g/100 ml; (TBME, Reflux) 8.00 g/100 ml; (iPrOH, 23° C.) 0.18 g/100 ml; (iPrOH, Reflux) 2.22 g/100 ml.

These data come from patent US12195434B2, “Process for the preparation of a chiral prostaglandin enol intermediate and intermediate compounds useful in the process” (EUROAPI HUNGARY LIMITED LIABILITY COMPANY, priority 2019, dated 2025).
